Columns and labels:
[1] = system: MCF-7 (ER+) human derived breast carcinoma cells; test: Growth inhibitory assay (MTT), MCF-7; format: cell-based; settings: MCF7, ER+ MCF-7, 3 days (72 h) treatment, n=8, representative mean, ^a = biphasic dose response
Protocol: (§1) Prodrugs were prepared as 10 mM top stocks, dissolved in dimethylsulphoxide (DMSO) or sterile ddH2O, and stored at 4°C, protected from light for a maximum period of 4 weeks. MCF-7 (ER+) and MDA 468 (ER−) human derived breast carcinoma cells, cultivated at 37°C in an atmosphere of 5% CO2 in RPMI 1640 medium supplemented with 2 mM L-glutamine and 10% foetal calf serum, were routinely subcultured twice weekly to maintain continuous logarithmic growth. Cells were seeded into 96-well microtiter plates at a density of 5×10^3 per well and allowed 24 h to adhere before drugs were introduced (final concentration 0.1 nM–100 μM, n=8). Serial drug dilutions were prepared in medium immediately prior to each assay. Viable cell masses at the time of drug addition (time-zero), and following 72 h drug exposure were determined by cell-mediated 3-(4,5-dimethylthiazol-2-yl)-2,5-diphenyltetrazolium bromide (MTT) reduction. MTT was added to each well (final concentration 400 μg ml^−1) and plates were incubated at 37°C for 4 h to allow reduction of MTT by viable cell dehydrogenases to an insoluble formazan product. Well supernatants were aspirated and cellular formazan solubilised by addition of DMSO : glycine buffer (pH 10.5) (4 : 1). Cell growth as well as drug activity were determined by measuring absorbance at 550 nm using an Anthos Labtec systems plate reader.

[2] = system: MDA 468 (ER−) human derived breast carcinoma cells; test: Growth inhibitory assay (MTT), MDA 468; format: cell-based; settings: Breast carcinoma cell, ER− MDA 468, 3 days (72 h) treatment, n=8, representative mean, ^a = biphasic dose response
Protocol: as §1

[3] = system: CYP1A1 activity (EROD) in MCF-7 cells; test: Induction of EROD activity in lysates of treated MCF-7 cells; format: cell-based, human; settings: lysates of MCF-7 cells treated with 1 μM, 24 h; negligible activity in untreated lysates; mean of three, s.d. <10%
Protocol: (§2) A sensitive and rapid fluorometric assay was used to measure EROD activity ([Burke et al, 1994]). Incubation mixtures (total 1 ml) consisted of 100 mM Tris-HCl (pH 7.4), 50 μM MgCl2, 100 μM 7-ethoxyresorufin and 100 μl cell homogenate. Homogenates were prepared following treatment of cells for 24 h with compounds 1, 2, 2a, 2b, 3, 3a, 3b, 4, 4a and 4b or vehicle alone and protein content determined (n=3). Thus induction of ethoxyresorufin O-deethylation by agents under study, catalysed by CYP1A1 activity, could be determined. Alternatively, microsomes expressing recombinant CYP1A1 (0.1 mg ml^−1) provided the enzyme source for EROD catalysis, in the presence or absence of drug, in order to determine inhibition of CYP1A1 activity by compounds 1, 2, 2a, 2b, 3, 3a, 3b, 4, 4a and 4b. Incubation mixtures were pre-incubated for 5 min at 37°C before initiation of reaction by addition of NADPH (500 μM). Following further incubations at 37°C (30 min for cell homogenates, 15 min for CYP1A1 microsomes), reactions were terminated by addition of 3 ml ice-cold acetonitrile. Reaction mixtures were centrifuged (1400 r.p.m., 10 min) before analyses of supernatants. Fluorescence was read on a Perkin-Elmer LS-5 luminescence spectrometer (excitation, 530 nm; emission 585 nm). Estimation of resorufin reaction product (pmoles mg^−1 protein, pmoles 100 μg^−1 microsomes), as a measure of CYP1A1 activity, was determined following performance of a resorufin standard curve.

CYP1A1 [4] = molecular target: T1, CYP1A1 (Homo sapiens, UniProt P04798); test: Inhibition of recombinant CYP1A1 microsomal EROD activity; format: biochemical; settings: microsomes expressing recombinant CYP1A1, pH 7.4, probe 7-ethoxyresorufin (100 μM); 30 μM agent; incubates without drug = 100% activity; mean of three, s.d. <10%; read-out: Microsomal CYP1A1 EROD activity (% control)
T1 sequence (P04798 1-512): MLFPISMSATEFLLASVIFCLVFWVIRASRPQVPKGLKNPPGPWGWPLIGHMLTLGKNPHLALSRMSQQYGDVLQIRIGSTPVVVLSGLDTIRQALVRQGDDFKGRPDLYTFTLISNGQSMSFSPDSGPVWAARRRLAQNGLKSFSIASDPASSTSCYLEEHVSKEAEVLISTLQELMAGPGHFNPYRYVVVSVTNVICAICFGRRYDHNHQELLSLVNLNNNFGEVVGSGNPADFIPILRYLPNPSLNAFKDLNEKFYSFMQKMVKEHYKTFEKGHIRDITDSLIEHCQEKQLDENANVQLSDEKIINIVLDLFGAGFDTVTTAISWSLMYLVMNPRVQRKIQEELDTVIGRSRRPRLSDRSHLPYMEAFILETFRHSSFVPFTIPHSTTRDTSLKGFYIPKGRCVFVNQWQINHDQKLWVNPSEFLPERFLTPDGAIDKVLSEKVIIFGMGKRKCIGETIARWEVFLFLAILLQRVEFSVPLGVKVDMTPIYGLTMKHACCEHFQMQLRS
Protocol: as §2

[5] = system: CYP1A1 protein expression in MCF-7 cells; test: Western blot of CYP1A1 protein, MCF-7 lysates; format: cell-based, human; settings: 1 μM, 24 h
Protocol: (§3) Whole cell lysates were prepared for examination of CYP1A1 protein expression from untreated MCF-7, IGROV-1 and HCT 116 cultures and following exposure of cells to compounds 1, 2, 2a, 2b, 3, 3a, 3b, 4, 4a and 4b. Following protein determination (n=3, [Bradford, 1976]) and addition of sample buffer, samples were boiled at 95°C for 5 min and solubilised proteins (50 μg) were separated by sodium dodecyl sulphate (SDS) polyacrylamide gel (10%) electrophoresis. Proteins were electroblotted to polyvinylidene difluoride (PVDF) membranes and probed for CYP1A1 protein with polyclonal antiserum specific for human CYP1A1/1A2 (Gentest Corporation). Secondary antibody was conjugated to alkaline phosphatase, and CYP1A1 was detected following brief (<10 min) incubation with bromochloroindolyl phosphate and nitro-blue tetrazolium in alkaline phosphatase buffer. Molecular weight markers and a positive control of recombinant CYP1A1 (Gentest Corporation), included in all blots, confirmed detection of 52 kDa CYP1A1 protein.

[6] = system: CYP1A1 protein expression in HCT 116 cells; test: Western blot of CYP1A1 protein, HCT 116 lysates; format: cell-based, human
Protocol: as §3

MCF-7 cells = test: Prodrug uptake, conversion and metabolism (HPLC of media), MCF-7; format: in vitro ADME, human; settings: for Biotransformation products of liberated parent amine in media: prodrug 10 μM, days 1–7
Protocol: (§4) MCF-7 cells were seeded into 25 ml flasks at appropriate densities (5×10^5–5×10^6). After 24 h, medium was changed and drug introduced at a final concentration of 10 μM. Media samples, collected from flasks at time zero and 24 h intervals, were mixed with 1.5-fold volumes of high performance liquid chromatography (HPLC) grade acetonitrile to precipitate protein and centrifuged at 14 000 g for 5 min. Supernatants (600 μl) were mixed with 400 μl 10% acetonitrile in 1% acetic acid and analysed by HPLC. The system consisted of Beckman System Gold equipment (solvent module 128, autosampler 507e and multiple wavelength UV detector 168). Separation of parent compounds and biotransformation products was effected at room temperature on a Phenomenex Aqua C18 reversed-phase column (150×4.6 mm). The mobile phase was formed by increasing, then decreasing the acetonitrile concentration in 1% acetic acid over 20 min by mixing two solutions: acetonitrile-water-acetic acid (10 : 90 : 1, v v^−1) and acetonitrile-water-acetic acid (80 : 20 : 1 v v^−1) and delivered at a flow rate of 1 ml min^−1. Compounds were detected at 324 nm.

T47D breast cells = test: Prodrug uptake, conversion and metabolism (HPLC of media), T47D; format: in vitro ADME, human
Protocol: as §4, with “The mobile phase was formed by increasing, then decreasing the acetonitrile concentration in 1% acetic acid over 20 min by mixing two solutions: acetonitrile-water-acetic acid (10 : 90 : 1, v v^−1) and acetonitrile-water-acetic acid (80 : 20 : 1 v v^−1) and delivered at a flow rate of 1 ml min^−1.” left out
(§5) Uptake and metabolism of compounds 1a and 1b were examined in sensitive breast (MCF-7 and T47D) and insensitive renal (A498) cells using HPLC conditions which allow simultaneous detection of prodrug, parent amine and metabolites. When incubated at 0.1, 1 or 10 μM over 7 days at 37°C, the lysyl-amide compound 1a was most readily removed from the media supporting MCF-7 and T47D cells (Figure 2

A498 renal cells = test: Prodrug uptake, conversion and metabolism (HPLC of media), A498; format: in vitro ADME, human
Protocol: as §4, with “The mobile phase was formed by increasing, then decreasing the acetonitrile concentration in 1% acetic acid over 20 min by mixing two solutions: acetonitrile-water-acetic acid (10 : 90 : 1, v v^−1) and acetonitrile-water-acetic acid (80 : 20 : 1 v v^−1) and delivered at a flow rate of 1 ml min^−1.” left out
as §5

CYP1A1 [7] = molecular target: T1, CYP1A1; design: method as in Chua et al, 2000; settings: ref Chua et al, 2000; cited from earlier work
[8] = Stability in human plasma; format: in vitro ADME; settings: 37°C; no free amine detected
Excerpt: Data have been presented describing the in vitro biological properties of alanyl and lysyl amide derivatives of 2-(4-amino-3-methylphenyl)benzothiazoles. Prodrugs are rapidly depleted from nutrient media, generating their parent species in the presence of cells (Figures 2 and 3). In the absence of cells, no spontaneous hydrolysis of the amide bond occurs to release the amine from its amino acid salt. The cleavage of amino acid amides may be catalysed by ubiquitously expressed aminopeptidases, but subsequent bioactivating steps, essential for the mechanism of action of aminophenylbenzothiazoles, take place selectively in sensitive cell lines (e.g. Figure 5). Compounds 1a and 1b were stable when incubated at 37°C with human plasma; specifically, no free amine was detected.

Structure (SMILES) | GI50 [1] [nM] | GI50 [2] [nM] | Induction EROD activity [3] | activity at 15 min, 30 μM (CYP1A1 [4]) [%] | CYP1A1 protein expression (Western blot) [5] | CYP1A1 protein expression (Western blot) [6] | Time of peak media level of regenerated parent amine (MCF-7 cells; regenerated from amide prodrugs, 7 day incubation) [days] | Time of peak media level of regenerated parent amine (T47D breast cells; T47D cells, regenerated from amide prodrugs, 7 day incubation) [days] | Removal of effluxed parent amine from media (A498 renal cells; inherently resistant A498 cells, 7 day incubation) | Hydrolysis of prodrug to parent amine (T47D breast cells; 10 μM, sensitive ER+ T47D breast cells, 37°C) | Hydrolysis of prodrug to parent amine (A498 renal cells; 10 μM, insensitive A498 renal cells, 37°C) | Stability in human plasma [8] | Biotransformation products of liberated parent amine in media (MCF-7 cells) | Inhibition of CYP1A1 microsome activity (CYP1A1 [7])
Cc1cc(-c2nc3ccccc3s2)ccc1N [Compound 1, 2-(4-amino-3-methylphenyl)benzothiazole] | < 0.1 | < 0.1 | 17.58 nM resorufin mg^-1 protein | 22.6 | induced | not induced | 3 | 3 | negligible net removal | – | – | – | – | irreversibly inhibited
Cc1cc(-c2nc3ccccc3s2)ccc1NC(=O)[C@H](C)N [Compound 1a] | 0.32 | 39.9 | – | – | – | – | – | – | – | rapidly and efficiently hydrolysed | rapidly and efficiently hydrolysed | stable | – | –
Cc1cc(-c2nc3ccccc3s2)ccc1NC(=O)[C@@H](N)CCCCN [Compound 1b] | 41.6 | 67.1 | – | – | – | – | – | – | – | – | – | stable | – | –
Cc1cc(-c2nc3cc(F)ccc3s2)ccc1NC(=O)[C@H](C)N [Compound 2a] | 5.8 | 37.7 | 28.37 nM resorufin mg^-1 protein | 40.6 | induced | – | – | – | – | – | – | – | – | –
Cc1cc(-c2nc3ccc(F)cc3s2)ccc1N [Compound 3] | 0.65 | 0.73 | 32.60 nM resorufin mg^-1 protein | 36.4 | induced | not induced | – | – | – | – | – | – | emergence of an oxidative metabolite | –
Cc1cc(-c2nc3cc(F)c(F)cc3s2)ccc1N [Compound 4] | < 0.1 | 3.55 | 32.02 nM resorufin mg^-1 protein | 43.1 | induced | – | – | – | – | – | – | – | emergence of an oxidative metabolite | –

Further lines, with some results ahead:

GI50 [1] [nM] | GI50 [2] [nM] | Induction EROD activity [3] | activity at 15 min, 30 μM (CYP1A1 [4]) [%] | CYP1A1 protein expression (Western blot) [5] | CYP1A1 protein expression (Western blot) [6] | Time of peak media level of regenerated parent amine (MCF-7 cells; regenerated from amide prodrugs, 7 day incubation) [days] | Time of peak media level of regenerated parent amine (T47D breast cells; T47D cells, regenerated from amide prodrugs, 7 day incubation) [days] | Removal of effluxed parent amine from media (A498 renal cells; inherently resistant A498 cells, 7 day incubation) | Hydrolysis of prodrug to parent amine (T47D breast cells; 10 μM, sensitive ER+ T47D breast cells, 37°C) | Hydrolysis of prodrug to parent amine (A498 renal cells; 10 μM, insensitive A498 renal cells, 37°C) | Stability in human plasma [8] | Biotransformation products of liberated parent amine in media (MCF-7 cells) | Structure (SMILES) | Inhibition of CYP1A1 microsome activity (CYP1A1 [7])
43.5 | 297 | 20.40 nM resorufin mg^-1 protein | 28.9 | induced | – | – | – | – | – | – | – | – | Cc1cc(-c2nc3ccc(F)cc3s2)ccc1NC(=O)[C@H](C)N [Compound 3a] | –
147 | 328 | 19.88 nM resorufin mg^-1 protein | 47 | induced | – | – | – | – | – | – | – | – | Cc1cc(-c2nc3ccc(F)cc3s2)ccc1NC(=O)[C@@H](N)CCCCN [Compound 3b] | –
33 | 220 | 17.09 nM resorufin mg^-1 protein | 41.9 | induced | – | – | – | – | – | – | – | – | Cc1cc(-c2nc3cc(F)c(F)cc3s2)ccc1NC(=O)[C@H](C)N [Compound 4a] | –
30.7 | 302 | 20.04 nM resorufin mg^-1 protein | 54.9 | induced | – | – | – | – | – | – | – | – | Cc1cc(-c2nc3cc(F)c(F)cc3s2)ccc1NC(=O)[C@@H](N)CCCCN [Compound 4b] | –

— article PMC2375326, “In vitro evaluation of amino acid prodrugs of novel antitumour 2-(4-amino-3-methylphenyl)benzothiazoles” (British Journal of Cancer, 2002)
